Read-outs that look alike come from different tables or passages of the source.

Assay [1] concerns the target GDP-bound KRAS wild-type protein (Homo sapiens, UniProt P01116). Kind of assay: Binding to KRAS by surface plasmon resonance (SPR), dissociation constant KD. Summed up:
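Recombinant RAS proteins bearing a biotinylated Avi tag and loaded with GDP served as the captured ligand, recaptured fresh every cycle. Binding responses were referenced to an uncoated surface and a buffer-only blank cycle. Dissociation constants were obtained by 1:1 model fitting at 30°C.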

For the next assay, the target named is HRAS wild-type protein (Homo sapiens, UniProt P01112). As to the kind of experiment: Binding to HRAS by surface plasmon resonance (SPR), KD and KD ratio to KRAS. In outline:
(§1)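 Each cycle, GDP-bound biotin-Avi RAS was captured (~100–300 RU), compound concentrations were injected low to high for 75 s each at 100 µL/min, then the chip was regenerated. Buffer: HBS pH 7.4, 10 mM MgCl2, 10 µM GDP, 1 mM DTT, 4% DMSO; 30°C. KD from a 1:1 binding model.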

The target of assay [2] is GDP-bound NRAS wild-type protein (Homo sapiens, UniProt P01111). Kind of assay: Binding to NRAS by surface plasmon resonance (SPR), KD and KD ratio to KRAS. Summed up: as §1
On the technique in general: Surface plasmon resonance follows binding to a sensor surface in real time, without labels.

Assay [3] has as its system human lung cancer strain NCI-H441. As to the kind of experiment: NCI-H441 cell proliferation inhibitory activity (CellTiter-Glo, 4 days). The format is cell-based. The note with it: read-out: NCl-H441 IC50. In outline: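 Signal came from […] measured per well once the reagent was added. Beforehand, cells were cultured at 37°C and 5% carbon dioxide on a compound series serially diluted in dimethyl sulfoxide.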

[4] abbreviates: Single Cycle Kinetics, 1:1 binding model.
Where [5] appears, read: ratio of KD with respect to HRAS wild-type protein to KD with respect to KRAS.
The mark [6] stands for this setting: ratio of KD with respect to GDP-bound NRAS wild-type protein to KD with respect to KRAS.
The mark [7] stands for this setting: 50% proliferation inhibitory concentration, four days.
Where [8] appears, read: ratio of KD for HRAS wild-type protein to KD for KRAS.
Where [9] appears, read: ratio of KD for GDP-bound NRAS wild-type protein to KD for KRAS.

Sequence of GDP-bound NRAS wild-type protein (P01111 whole entry): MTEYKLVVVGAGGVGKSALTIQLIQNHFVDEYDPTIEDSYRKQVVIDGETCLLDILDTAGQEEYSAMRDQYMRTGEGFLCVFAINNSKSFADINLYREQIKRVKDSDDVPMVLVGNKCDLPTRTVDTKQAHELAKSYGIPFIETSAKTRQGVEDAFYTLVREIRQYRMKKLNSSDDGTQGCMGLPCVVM
Sequence of HRAS wild-type protein (P01112 whole entry): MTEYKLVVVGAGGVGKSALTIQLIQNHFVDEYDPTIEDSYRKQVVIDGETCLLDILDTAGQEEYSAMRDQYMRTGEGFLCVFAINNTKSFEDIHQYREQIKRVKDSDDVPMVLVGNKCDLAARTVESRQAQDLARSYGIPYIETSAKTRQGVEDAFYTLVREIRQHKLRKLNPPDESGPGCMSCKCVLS
Sequence of GDP-bound KRAS wild-type protein (P01116 1-188 isoform P01116-2): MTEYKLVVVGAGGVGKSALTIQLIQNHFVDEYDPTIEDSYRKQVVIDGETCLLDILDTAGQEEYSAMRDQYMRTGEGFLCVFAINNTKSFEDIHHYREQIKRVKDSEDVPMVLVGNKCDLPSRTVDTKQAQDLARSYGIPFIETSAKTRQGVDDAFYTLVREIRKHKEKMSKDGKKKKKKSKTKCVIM

By Kd is commonly meant a measure of binding affinity in units of concentration. A lower Kd goes with a tighter complex. What is called IC50 is the concentration at which inhibition is half-maximal. In assay [1] (setting [4]), `CCO[C@@H]1C[C@H]2C(=O)NC3(CCC3)C(=O)N(C)[C@@H](C3CCCC3)C(=O)N(C)[C@H](C(=O)N3CCOCC3)CC(=O)N(C)[C@@H](CC)C(=O)N[C@@H]([C@@H](C)CC)C(=O)N(C)CC(=O)N(C)[C@H]3C[C@@H](C)[C@@H](C)CN(C3=O)[C@@H](Cc3ccc(C(F)(F)F)cc3)C(=O)N(C)CC(=O)N[C@@H](CCc3cc(F)c(C(F)(F)F)c(F)c3)C(=O)N2C1` [PP1354] had a dissociation constant (Kd) of 0.056 nM. For the same compound, the “HRAS /KRAS” value on HRAS wild-type protein (setting [5]) was “B (a compound having 3 or more and less than 10 is denoted as B)”. In addition, in assay [2] (setting [6]), the “NRAS /KRAS” value was “A (a compound having 10 or more and less than 20 is denoted as A)”. Also, in assay [3] (setting [7]), the IC50 was found to be 3.6 nM.
With `CCO[C@@H]1C[C@H]2C(=O)NC3(CC(C)(C)C3)C(=O)N(C)[C@@H](C(CC)CC)C(=O)N(C)[C@H](C(=O)N(C)C)CC(=O)N(C)[C@@H](COC)C(=O)N[C@@H]([C@@H](C)CC)C(=O)N3CCC[C@H]3C(=O)N(C)[C@H]3C/C=C\CCN(C3=O)[C@@H](Cc3ccc(C(F)(F)F)cc3)C(=O)N(C)CC(=O)N[C@@H](CCc3ccc(Cl)c(Cl)c3)C(=O)N2C1` [PP2635], binding in assay [1] (1:1 binding model) was characterised by a dissociation constant (Kd) of 0.97 nM. Also, the “HRAS /KRAS” value at HRAS wild-type protein (setting [8]) was “A (a compound having 10 or more and less than 20 is denoted as A)”. In assay [2] (setting [9]), the “NRAS /KRAS” value is “AA (a compound having 20 or more is denoted as AA)”. In assay [3] (NCI-H441 cells, 4 days), the IC50 amounted to 50.2 nM.
In the case of `CCC[C@H]1C(=O)N[C@@H]([C@@H](C)CC)C(=O)N2CCCCC[C@H]2C(=O)N(C)[C@H]2C/C=C\CCN(C2=O)[C@@H](Cc2ccc(C)cc2)C(=O)N(C)CC(=O)N[C@@H](CCc2ccc(C(F)(F)F)c(OC)c2)C(=O)N2C[C@H](OCC)C[C@H]2C(=O)N(C)C2(CCC2)C(=O)N(C)[C@@H](C2CCCC2)C(=O)N(C)[C@H](C(=O)N(C)C)CC(=O)N1C` [PP3279], the dissociation constant Kd in assay [1] (Single Cycle Kinetics) was determined as 4.5 nM. The “HRAS /KRAS” value on HRAS wild-type protein (setting [8]) was “B (a compound having 3 or more and less than 10 is denoted as B)”. Also, the “NRAS /KRAS” value in assay [2] (setting [9]) was “A (a compound having 10 or more and less than 20 is denoted as A)”. The IC50 in assay [3] (NCI-H441 cells, 4 days) came to 144 nM.
Regarding `CC[C@H](C)[C@@H]1NC(=O)[C@H](COC)N(C)C(=O)C[C@@H](C(=O)N(C)C)N(C)C(=O)[C@H](C2CCCC2)N(C)C(=O)C2(CC(C)(C)C2)NC(=O)[C@@H]2C[C@@H](OC3CCCC3)CN2C(=O)[C@H](CCc2cc(F)c(C(F)(F)F)c(F)c2)NC(=O)CN(C)C(=O)[C@H](CC2CCCCC2)N2CC/C=C\C[C@@H](C2=O)N(C)C(=O)CN(C2CC2)C1=O` [PP2630], in assay [1] (1:1 binding model), binding was characterised by a dissociation constant (Kd) of 3 nM. The “HRAS /KRAS” value at HRAS wild-type protein (setting [8]) was “B (a compound having 3 or more and less than 10 is denoted as B)”. Besides, in assay [2] (setting [9]), the “NRAS /KRAS” value is “A (a compound having 10 or more and less than 20 is denoted as A)”. For the same compound, the 50% inhibitory concentration (IC50) in assay [3] (NCI-H441 cells, 4 days) worked out at 190 nM.
Compound `CCCO[C@@H]1C[C@H]2C(=O)NC3(CC(C)(C)C3)C(=O)N(C)[C@@H](C3CCCC3)C(=O)N(C)[C@H](C(=O)N(C)CC)CC(=O)N[C@@H](COCC)C(=O)N[C@@H]([C@@H](C)CC)C(=O)N3C[C@@H](F)C[C@H]3C(=O)N(C)[C@H]3C/C=C\CCN(C3=O)[C@@H](Cc3ccc(C)cc3)C(=O)N(C)CC(=O)N[C@@H](CCc3ccc(C(F)(F)F)c(OC)c3)C(=O)N2C1` [PP3443] came in with a dissociation constant (Kd) in assay [1] (Single Cycle Kinetics) of 0.75 nM. On HRAS wild-type protein (setting [8]), the “HRAS /KRAS” value is “A (a compound having 10 or more and less than 20 is denoted as A)”. For the same compound, in assay [2] (setting [9]), the “NRAS /KRAS” value was “A (a compound having 10 or more and less than 20 is denoted as A)”. In addition, the IC50 in assay [3] (NCI-H441 cells, 4 days) was found to be 73.5 nM.
Consider `CCO[C@@H]1C[C@H]2C(=O)NC3(CC(C)(C)C3)C(=O)N(C)[C@@H](C(CC)CC)C(=O)N(C)[C@H](C(=O)N(C)C)CC(=O)N(C)[C@@H](CC3CC3)C(=O)N[C@@H]([C@@H](C)CC)C(=O)N(C)CC(=O)N(C)[C@H]3C/C=C\CCN(C3=O)[C@@H](CC3CCC(F)(F)CC3)C(=O)N(C)CC(=O)N[C@@H](CCc3ccc(C(F)(F)F)c(Cl)c3)C(=O)N2C1` [PP2495], for which binding in assay [1] (1:1 binding model) was put at a Kd of 0.84 nM. In addition, the “HRAS /KRAS” value at HRAS wild-type protein (setting [8]) is “A (a compound having 10 or more and less than 20 is denoted as A)”. Besides, the “NRAS /KRAS” value in assay [2] (setting [9]) was “A (a compound having 10 or more and less than 20 is denoted as A)”. In addition, the half-inhibitory concentration (IC50) in assay [3] (NCI-H441 cells, 4 days) came to 17.4 nM.
In the case of `CCC[C@H]1C(=O)N[C@@H]([C@@H](C)CC)C(=O)N(C2CC2)CC(=O)N(C)[C@H]2C/C=C\CCN(C2=O)[C@@H](CC2CCC(F)(F)CC2)C(=O)N(C)CC(=O)N[C@@H](CCc2ccc(Cl)c(Cl)c2)C(=O)N2C[C@H](OC(C)C)C[C@H]2C(=O)NC2(CC(C)(C)C2)C(=O)N(C)[C@@H](C2CCCC2)C(=O)N(C)[C@H](C(=O)N(C)C)CC(=O)N1C` [PP2521], the Kd in assay [1] (1:1 binding model) stood at 2.8 nM. On HRAS wild-type protein (setting [8]), the “HRAS /KRAS” value is “A (a compound having 10 or more and less than 20 is denoted as A)”. Moreover, in assay [2] (setting [9]), the “NRAS /KRAS” value is “A (a compound having 10 or more and less than 20 is denoted as A)”. For the same compound, in assay [3] (NCI-H441 cells, 4 days), the IC50 came to 129 nM.
Compound `CCO[C@@H]1C[C@H]2C(=O)NC3(CCC3)C(=O)N(C)[C@@H](C(CC)CC)C(=O)N(C)[C@H](C(=O)N(C)C)CC(=O)N(C)[C@@H](CC)C(=O)N[C@@H]([C@@H](C)CC)C(=O)N(C)CC(=O)N(C)[C@H]3C/C=C\CCN(C3=O)[C@@H](Cc3ccc(C(F)(F)F)cc3)C(=O)N(C)CC(=O)N[C@@H](CCc3ccc4sccc4c3)C(=O)N2C1` [PP1223] showed a Kd in assay [1] (setting [4]) of 1.2 nM. Besides, the “HRAS /KRAS” value at HRAS wild-type protein (setting [5]) is “A (a compound having 10 or more and less than 20 is denoted as A)”. Further, in assay [2] (setting [6]), the “NRAS /KRAS” value is reported as “AA (a compound having 20 or more is denoted as AA)”. Also, in assay [3] (setting [7]), the half-inhibitory concentration (IC50) was found to be 117 nM.
`CCC[C@H]1C(=O)N[C@@H](CC(C)C)C(=O)N(CCOC)CC(=O)N(C)[C@H]2C/C=C\CCN(C2=O)[C@@H](Cc2ccc(C)cc2)C(=O)N(C)CC(=O)N[C@@H](CCc2cc(F)c(C(F)(F)F)c(F)c2)C(=O)N2C[C@H](OCC)C[C@H]2C(=O)NC2(CC(C)(C)C2)C(=O)N(C)[C@@H](C2CCCC2)C(=O)N(C)[C@H](C(=O)N(C)C)CC(=O)N1C` [PP2520] displayed a Kd in assay [1] (1:1 binding model) of 3.3 nM. The “HRAS /KRAS” value on HRAS wild-type protein (setting [8]) was “A (a compound having 10 or more and less than 20 is denoted as A)”. The “NRAS /KRAS” value in assay [2] (setting [9]) is “A (a compound having 10 or more and less than 20 is denoted as A)”. In assay [3] (NCI-H441 cells, 4 days), the IC50 stood at 210 nM.
In assay [1] (Single Cycle Kinetics), `CCC[C@H]1C(=O)N[C@@H](C2CCCC2)C(=O)N(C)CC(=O)N(C)[C@H]2C/C=C\CCN(C2=O)[C@@H](Cc2ccc(C(F)(F)F)cc2)C(=O)N(C)CC(=O)N[C@@H](CCc2ccc(C(F)(F)F)c(Cl)c2)C(=O)N2CC3(CC3)C[C@H]2C(=O)N(C)C2(CCC2)C(=O)N(C)[C@@H]([C@@H](C)CC)C(=O)N(C)[C@H](C(=O)N(C)C)CC(=O)N1C` [PP3323] yielded a Kd of 1.3 nM. Also, the “HRAS /KRAS” value at HRAS wild-type protein (setting [8]) is “A (a compound having 10 or more and less than 20 is denoted as A)”. In addition, the “NRAS /KRAS” value in assay [2] (setting [9]) is reported as “AA (a compound having 20 or more is denoted as AA)”. Besides, in assay [3] (NCI-H441 cells, 4 days), the 50% inhibitory concentration (IC50) was found to be 9.2 nM.
For the compound `CCO[C@@H]1C[C@H]2C(=O)NC3(CCC3)C(=O)N(C)[C@@H](C3CCCC3)C(=O)N(C)[C@H](C(=O)N3CCOCC3)CC(=O)N(C)[C@@H](Cc3ccsc3)C(=O)N[C@@H]([C@@H](C)CC)C(=O)N(C)CC(=O)N(C)[C@H]3CCCCCN(C3=O)[C@@H](Cc3ccc(F)cc3)C(=O)N(C)CC(=O)N[C@@H](CCc3cc(F)c(C(F)(F)F)c(F)c3)C(=O)N2C1` [PP1184], the Kd in assay [1] (setting [4]) is 0.16 nM. Further, the “HRAS /KRAS” value on HRAS wild-type protein (setting [5]) is “B (a compound having 3 or more and less than 10 is denoted as B)”. Moreover, the “NRAS /KRAS” value in assay [2] (setting [6]) was “B (a compound having 3 or more and less than 10 is denoted as B)”. For the same compound, the half-inhibitory concentration (IC50) in assay [3] (setting [7]) worked out at 91.9 nM.

The values are drawn from patent EP4603105A1, “PHARMACEUTICAL COMPOSITION CONTAINING CYCLIC COMPOUND HAVING SELECTIVE KRAS INHIBITORY EFFECT AGAINST HRAS AND NRAS” (CHUGAI SEIYAKU KABUSHIKI KAISHA, priority 2022, dated 2024).
